Article PMC10879502, “Linking ATP and allosteric sites to achieve superadditive binding with bivalent EGFR kinase inhibitors” (Communications Chemistry, 2024)

Experiments:
Assay in all cases: KINOMEscan
Format in all cases: binding
Settings in all cases: 1 μM
[1] = target: T1, ABL1(F317L)-nonphosphorylated (Homo sapiens, UniProt P00519, F317L)
T1 construct: purchased Eurofins DiscoverX Corporation

ABL1-nonphosphorylated = target: T2, ABL1-nonphosphorylated (Homo sapiens, UniProt P00519)
T2 construct: purchased Eurofins DiscoverX Corporation

ALK(C1156Y) = ALK(C1156Y) (Homo sapiens, UniProt Q9UM73, C1156Y)
CAMK1D = target: T3, CAMK1D (Homo sapiens, UniProt Q8IU85)
T3 construct: purchased Eurofins DiscoverX Corporation (KINOMEscan)

DCAMKL3 = target: T4, DCAMKL3 (Homo sapiens, UniProt Q9C098)
T4 construct: purchased Eurofins DiscoverX Corporation

DDR1 = target: T5, DDR1 (Homo sapiens, UniProt Q08345)
T5 construct: purchased Eurofins DiscoverX Corporation
T5 sequence (Q08345 19-913): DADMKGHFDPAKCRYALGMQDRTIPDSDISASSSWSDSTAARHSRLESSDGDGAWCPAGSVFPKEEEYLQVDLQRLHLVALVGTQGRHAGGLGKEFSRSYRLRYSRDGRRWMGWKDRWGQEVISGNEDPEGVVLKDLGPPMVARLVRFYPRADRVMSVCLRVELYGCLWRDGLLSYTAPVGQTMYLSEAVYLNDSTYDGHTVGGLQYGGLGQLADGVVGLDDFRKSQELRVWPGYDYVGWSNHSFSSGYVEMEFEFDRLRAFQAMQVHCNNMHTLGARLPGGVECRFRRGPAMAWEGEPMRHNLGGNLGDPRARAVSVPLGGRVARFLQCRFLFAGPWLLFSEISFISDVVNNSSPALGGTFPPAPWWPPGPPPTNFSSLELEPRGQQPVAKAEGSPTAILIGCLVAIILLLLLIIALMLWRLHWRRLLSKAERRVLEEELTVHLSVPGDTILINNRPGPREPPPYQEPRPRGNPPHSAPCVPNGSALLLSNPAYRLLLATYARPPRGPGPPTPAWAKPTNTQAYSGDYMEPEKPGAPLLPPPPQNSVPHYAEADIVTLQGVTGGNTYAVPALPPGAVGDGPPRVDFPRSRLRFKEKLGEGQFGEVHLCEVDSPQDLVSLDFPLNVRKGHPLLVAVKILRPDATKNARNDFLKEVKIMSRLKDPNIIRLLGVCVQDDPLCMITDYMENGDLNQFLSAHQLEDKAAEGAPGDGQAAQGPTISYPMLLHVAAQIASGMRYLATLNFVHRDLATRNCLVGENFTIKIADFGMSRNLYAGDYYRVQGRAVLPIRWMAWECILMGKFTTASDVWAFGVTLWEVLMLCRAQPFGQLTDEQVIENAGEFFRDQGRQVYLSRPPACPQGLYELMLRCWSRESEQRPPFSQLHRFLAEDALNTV

EGFR(G719S) = EGFR(G719S) (Homo sapiens, UniProt P00533, G719S)
EGFR(L858R+T790M) = EGFR(L858R+T790M) (Homo sapiens, UniProt P00533, L858R/T790M)
EPHB6 = EPHB6 (Homo sapiens, UniProt O15197)
ERK5 = ERK5 (Homo sapiens, UniProt Q13164)
FLT3(K663Q) = target: T6, FLT3(K663Q) (Homo sapiens, UniProt P36888, K663Q)
T6 construct: purchased Eurofins DiscoverX Corporation

GAK = target: T7, GAK (Homo sapiens, UniProt O14976)
T7 construct: purchased Eurofins DiscoverX Corporation

GRK7 = target: T8, GRK7 (Homo sapiens, UniProt Q8WTQ7)
T8 construct: purchased Eurofins DiscoverX Corporation

HPK1 = target: T9, HPK1 (Homo sapiens, UniProt Q92918)
T9 construct: purchased Eurofins DiscoverX (KINOMEscan)

IRAK4 = target: T10, IRAK4 (Homo sapiens, UniProt Q9NWZ3)
T10 construct: purchased Eurofins DiscoverX (KINOMEscan)
T10 sequence (Q9NWZ3 whole entry): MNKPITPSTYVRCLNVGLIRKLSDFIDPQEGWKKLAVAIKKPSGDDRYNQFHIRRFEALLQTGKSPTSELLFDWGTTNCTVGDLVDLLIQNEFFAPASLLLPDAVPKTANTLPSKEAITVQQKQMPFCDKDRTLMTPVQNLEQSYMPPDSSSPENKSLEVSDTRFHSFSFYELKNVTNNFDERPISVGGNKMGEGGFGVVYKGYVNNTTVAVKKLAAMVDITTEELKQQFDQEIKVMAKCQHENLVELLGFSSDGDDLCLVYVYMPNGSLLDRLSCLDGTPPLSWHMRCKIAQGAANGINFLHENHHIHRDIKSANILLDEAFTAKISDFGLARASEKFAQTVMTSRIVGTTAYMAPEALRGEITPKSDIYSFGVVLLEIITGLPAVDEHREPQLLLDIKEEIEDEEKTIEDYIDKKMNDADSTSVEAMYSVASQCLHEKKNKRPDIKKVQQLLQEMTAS

KIT(A829P) = target: T11, KIT(A829P) (Homo sapiens, UniProt P10721, A829P)
T11 construct: purchased Eurofins DiscoverX (KINOMEscan)

LATS1 = target: T12, LATS1 (Homo sapiens, UniProt O95835)
T12 construct: purchased Eurofins DiscoverX Corporation
T12 sequence (O95835 whole entry): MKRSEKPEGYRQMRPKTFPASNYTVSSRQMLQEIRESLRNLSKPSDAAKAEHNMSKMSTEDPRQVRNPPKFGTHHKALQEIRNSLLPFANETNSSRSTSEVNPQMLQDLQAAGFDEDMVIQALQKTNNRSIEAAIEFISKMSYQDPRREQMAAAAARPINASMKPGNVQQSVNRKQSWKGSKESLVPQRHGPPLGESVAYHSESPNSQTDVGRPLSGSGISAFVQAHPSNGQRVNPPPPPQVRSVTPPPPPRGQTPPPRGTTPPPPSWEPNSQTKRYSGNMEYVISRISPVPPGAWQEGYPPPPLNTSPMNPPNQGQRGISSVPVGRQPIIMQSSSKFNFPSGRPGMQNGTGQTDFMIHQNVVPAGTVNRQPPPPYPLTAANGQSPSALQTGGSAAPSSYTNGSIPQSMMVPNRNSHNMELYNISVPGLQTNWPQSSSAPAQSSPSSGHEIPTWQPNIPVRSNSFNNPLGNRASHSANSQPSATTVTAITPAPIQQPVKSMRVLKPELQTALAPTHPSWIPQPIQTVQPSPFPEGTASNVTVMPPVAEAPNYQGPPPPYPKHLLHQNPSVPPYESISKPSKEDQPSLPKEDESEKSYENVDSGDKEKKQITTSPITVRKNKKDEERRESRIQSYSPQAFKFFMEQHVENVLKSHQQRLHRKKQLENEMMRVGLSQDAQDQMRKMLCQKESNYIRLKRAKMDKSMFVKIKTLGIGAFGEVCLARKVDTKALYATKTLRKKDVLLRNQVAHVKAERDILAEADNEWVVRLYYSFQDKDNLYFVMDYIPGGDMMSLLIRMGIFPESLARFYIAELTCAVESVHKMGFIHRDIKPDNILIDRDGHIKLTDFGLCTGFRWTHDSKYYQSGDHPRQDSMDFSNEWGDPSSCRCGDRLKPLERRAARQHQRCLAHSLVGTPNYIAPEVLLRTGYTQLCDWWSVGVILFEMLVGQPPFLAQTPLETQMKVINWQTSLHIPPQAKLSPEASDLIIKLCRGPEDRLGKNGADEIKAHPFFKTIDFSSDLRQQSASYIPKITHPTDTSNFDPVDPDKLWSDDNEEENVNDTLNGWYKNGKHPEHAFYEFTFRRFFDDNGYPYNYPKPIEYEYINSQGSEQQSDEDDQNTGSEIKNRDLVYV

LIMK2 = target: T13, LIMK2 (Homo sapiens, UniProt P53671)
T13 construct: purchased Eurofins DiscoverX Corporation

MAP3K1 = target: T14, MAP3K1 (Homo sapiens, UniProt Q13233)
T14 construct: purchased Eurofins DiscoverX Corporation

MAP3K4 = target: T15, MAP3K4 (Homo sapiens, UniProt Q9Y6R4)
T15 construct: purchased Eurofins DiscoverX Corporation

MRCKB = target: T16, MRCKB (Homo sapiens, UniProt Q9Y5S2)
T16 construct: purchased Eurofins DiscoverX Corporation

MYLK4 = target: T17, MYLK4 (Homo sapiens, UniProt Q86YV6)
T17 construct: purchased Eurofins DiscoverX Corporation
T17 sequence (Q86YV6 whole entry): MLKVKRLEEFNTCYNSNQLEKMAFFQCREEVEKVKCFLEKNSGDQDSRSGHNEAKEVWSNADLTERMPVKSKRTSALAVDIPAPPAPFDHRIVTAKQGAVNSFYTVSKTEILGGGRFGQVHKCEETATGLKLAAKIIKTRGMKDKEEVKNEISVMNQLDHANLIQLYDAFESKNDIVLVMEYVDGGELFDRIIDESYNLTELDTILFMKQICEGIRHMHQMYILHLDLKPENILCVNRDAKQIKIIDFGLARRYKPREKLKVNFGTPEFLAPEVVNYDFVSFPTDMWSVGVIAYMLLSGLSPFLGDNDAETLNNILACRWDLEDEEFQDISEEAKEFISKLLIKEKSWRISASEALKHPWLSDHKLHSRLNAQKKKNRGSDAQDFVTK

NEK1 = target: T18, NEK1 (Homo sapiens, UniProt Q96PY6)
T18 construct: purchased Eurofins DiscoverX Corporation

p38-delta = p38-delta (Homo sapiens, UniProt O15264)
PAK7 = PAK7 (Homo sapiens, UniProt Q9P286)
PAK7, sequence (Q9P286 whole entry): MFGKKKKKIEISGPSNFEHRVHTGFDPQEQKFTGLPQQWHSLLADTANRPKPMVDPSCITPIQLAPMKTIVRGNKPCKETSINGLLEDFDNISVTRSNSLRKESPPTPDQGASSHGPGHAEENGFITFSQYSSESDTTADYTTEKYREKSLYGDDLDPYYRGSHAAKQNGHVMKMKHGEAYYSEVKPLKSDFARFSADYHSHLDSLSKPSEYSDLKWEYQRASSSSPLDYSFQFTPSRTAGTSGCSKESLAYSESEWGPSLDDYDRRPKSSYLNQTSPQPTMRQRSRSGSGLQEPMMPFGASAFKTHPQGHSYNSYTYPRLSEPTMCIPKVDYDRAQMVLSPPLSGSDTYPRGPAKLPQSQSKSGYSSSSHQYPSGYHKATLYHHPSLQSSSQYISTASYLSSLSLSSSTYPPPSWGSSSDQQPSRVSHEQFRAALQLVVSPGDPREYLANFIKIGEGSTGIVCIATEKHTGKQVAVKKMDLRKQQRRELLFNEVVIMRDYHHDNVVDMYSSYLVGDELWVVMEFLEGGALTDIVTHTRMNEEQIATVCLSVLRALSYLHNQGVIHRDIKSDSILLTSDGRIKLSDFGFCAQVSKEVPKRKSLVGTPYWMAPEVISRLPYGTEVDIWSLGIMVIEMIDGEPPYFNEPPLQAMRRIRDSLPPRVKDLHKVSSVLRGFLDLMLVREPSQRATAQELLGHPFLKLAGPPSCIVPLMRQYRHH

PIK3C2B = PIK3C2B (Homo sapiens, UniProt O00750)
PIK3C2G = PIK3C2G (Homo sapiens, UniProt O75747)
PIK3C2G, sequence (O75747 whole entry): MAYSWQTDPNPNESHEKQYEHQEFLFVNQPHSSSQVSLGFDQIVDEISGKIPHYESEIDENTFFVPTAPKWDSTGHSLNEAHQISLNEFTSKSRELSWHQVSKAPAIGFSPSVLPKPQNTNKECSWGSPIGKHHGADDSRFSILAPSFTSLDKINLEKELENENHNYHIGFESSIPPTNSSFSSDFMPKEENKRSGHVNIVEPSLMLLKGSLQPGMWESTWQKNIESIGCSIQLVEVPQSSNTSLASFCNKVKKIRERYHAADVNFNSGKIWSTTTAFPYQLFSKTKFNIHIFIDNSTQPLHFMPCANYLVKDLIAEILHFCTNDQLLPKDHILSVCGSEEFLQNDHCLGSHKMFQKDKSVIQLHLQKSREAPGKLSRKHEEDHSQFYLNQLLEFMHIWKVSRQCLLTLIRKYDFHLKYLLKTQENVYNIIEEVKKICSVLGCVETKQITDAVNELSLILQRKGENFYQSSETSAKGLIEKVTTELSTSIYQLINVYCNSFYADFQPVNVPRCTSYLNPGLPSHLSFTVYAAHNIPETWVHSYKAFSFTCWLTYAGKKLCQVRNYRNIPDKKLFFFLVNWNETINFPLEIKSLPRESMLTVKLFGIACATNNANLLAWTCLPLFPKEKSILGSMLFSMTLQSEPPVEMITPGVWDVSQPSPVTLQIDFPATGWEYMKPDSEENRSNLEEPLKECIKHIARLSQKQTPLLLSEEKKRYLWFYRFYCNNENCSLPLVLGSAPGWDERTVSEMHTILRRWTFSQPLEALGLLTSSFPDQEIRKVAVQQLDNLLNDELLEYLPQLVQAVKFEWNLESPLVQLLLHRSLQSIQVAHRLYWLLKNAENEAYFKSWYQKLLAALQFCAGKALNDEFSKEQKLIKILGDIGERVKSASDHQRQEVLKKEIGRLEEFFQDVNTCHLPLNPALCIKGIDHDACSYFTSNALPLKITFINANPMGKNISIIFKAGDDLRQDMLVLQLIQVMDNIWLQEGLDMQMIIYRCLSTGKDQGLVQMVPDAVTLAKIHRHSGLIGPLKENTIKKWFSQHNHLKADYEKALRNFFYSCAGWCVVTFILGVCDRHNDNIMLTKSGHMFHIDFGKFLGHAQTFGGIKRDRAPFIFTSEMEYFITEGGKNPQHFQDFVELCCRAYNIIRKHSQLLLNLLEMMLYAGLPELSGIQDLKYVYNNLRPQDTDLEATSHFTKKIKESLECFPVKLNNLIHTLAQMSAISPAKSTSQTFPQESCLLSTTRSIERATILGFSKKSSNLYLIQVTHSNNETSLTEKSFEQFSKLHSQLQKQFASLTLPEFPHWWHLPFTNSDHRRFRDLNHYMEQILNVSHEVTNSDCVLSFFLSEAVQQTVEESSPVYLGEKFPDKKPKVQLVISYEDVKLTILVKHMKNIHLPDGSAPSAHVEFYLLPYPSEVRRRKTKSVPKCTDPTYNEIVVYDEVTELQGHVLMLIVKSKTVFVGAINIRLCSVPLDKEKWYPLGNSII

PIK3CA(H1047L) = PIK3CA(H1047L) (Homo sapiens, UniProt P42336, H1047L)
PIK3CG = PIK3CG (Homo sapiens, UniProt P48736)
PLK4 = PLK4 (Homo sapiens, UniProt O00444)
PRKCQ = PRKCQ (Homo sapiens, UniProt Q04759)
RET = RET (Homo sapiens, UniProt P07949)
[2] = target: RSK1(Kin.Dom.1-N-terminal) (Homo sapiens, UniProt Q15418)
S6K1 = S6K1 (Homo sapiens, UniProt P23443)
SRMS = SRMS (Homo sapiens, UniProt Q9H3Y6)
TAOK1 = target: T19, TAOK1 (Homo sapiens, UniProt Q7L7X3)
T19 construct: purchased Eurofins DiscoverX Corporation

TBK1 = target: T20, TBK1 (Homo sapiens, UniProt Q9UHD2)
T20 construct: purchased Eurofins DiscoverX Corporation

TGFBR1 = target: T21, TGFBR1 (Homo sapiens, UniProt P36897)
T21 construct: purchased Eurofins DiscoverX Corporation

TNK2 = target: T22, TNK2 (Homo sapiens, UniProt Q07912)
T22 construct: purchased Eurofins DiscoverX Corporation

TRPM6 = target: T23, TRPM6 (Homo sapiens, UniProt Q9BX84)
T23 construct: purchased Eurofins DiscoverX Corporation

VPS34 = VPS34 (Homo sapiens, UniProt Q8NEB9)
YSK4 = YSK4 (Homo sapiens, UniProt Q56UN5)

## C=CC(=O)Nc1ccc(OC)c(Nc2cc(-c3[nH]c(CC)nc3-c3cccc(NC(=O)c4cccc5c4NC(=O)c4ccccc4N5)c3)ccn2)c1 [Compound 4]
[1]
  POC: 37% of control
ABL1-nonphosphorylated
  POC: 100% of control
ALK(C1156Y)
  POC: 87% of control
CAMK1D
  POC: 100% of control
DCAMKL3
  POC: 86% of control
DDR1
  POC: 90% of control
EGFR(G719S)
  POC: 13% of control
EGFR(L858R+T790M)
  POC: 8.3% of control
EPHB6
  POC: 100% of control
ERK5
  POC: 100% of control
FLT3(K663Q)
  POC: 87% of control
GAK
  POC: 16% of control
GRK7
  POC: 99% of control
HPK1
  POC: 45% of control
IRAK4
  POC: 43% of control
KIT(A829P)
  POC: 56% of control
LATS1
  POC: 100% of control
LIMK2
  POC: 93% of control
MAP3K1
  POC: 100% of control
MAP3K4
  POC: 100% of control
MRCKB
  POC: 1.7% of control
MYLK4
  POC: 95% of control
NEK1
  POC: 90% of control
p38-delta
  POC: 100% of control
PAK7
  POC: 77% of control
PIK3C2B
  POC: 74% of control
PIK3C2G
  POC: 50% of control
PIK3CA(H1047L)
  POC: 100% of control
PIK3CG
  POC: 65% of control
PLK4
  POC: 71% of control
PRKCQ
  POC: 18% of control
RET
  POC: 99% of control
[2]
  POC: 4.7% of control
S6K1
  POC: 100% of control
SRMS
  POC: 61% of control
TAOK1
  POC: 100% of control
TBK1
  POC: 95% of control
TGFBR1
  POC: 75% of control
TNK2
  POC: 3.8% of control
TRPM6
  POC: 99% of control
VPS34
  POC: 84% of control
YSK4
  POC: 88% of control
